Experimental data from PubChem BioAssay AID1963450 (Molecular Pharmacology Branch, DTP, NCI, 2024).
Several values for one entry are separate records, joined by “and”; a condition that tells them apart may be missing. Equal values may be shown once. Values belong to the compound of their own block, whether it stands above or below them.

Test system: 556581-035-R-J1-PDC complex spheroid growth
Assay: Anticancer human tumor 556581-035-R-J1-PDC patient-derived ovarian carcinoma cell line growth inhibition [Asc]
Conditions: for viability, T/C: stronger effect = lower value
How it was run: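 Stromal components (HUVEC and hMSC) are co-assembled with the cancer cells into multicellular spheroids. Drugs are then added singly or paired, at concentrations falling by half-log increments from a clinically achievable maximum, capped at 10 microM without known Cmax.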

[1] = curve of first compound, second compound 0.1 µM
[2] = curve of first compound, second compound 0.316 µM
[3] = curve of first compound, second compound 1 µM
[4] = second compound 0.1 µM, first compound 0.0316 µM
[5] = second compound 0.1 µM, first compound 0.1 µM
[6] = second compound 0.1 µM, first compound 0.316 µM
[7] = second compound 0.1 µM, first compound 1 µM
[8] = second compound 0.316 µM, first compound 0.0316 µM
[9] = second compound 0.316 µM, first compound 0.1 µM
[10] = second compound 0.316 µM, first compound 0.316 µM
[11] = second compound 0.316 µM, first compound 1 µM
[12] = second compound 1 µM, first compound 0.0316 µM
[13] = second compound 1 µM, first compound 0.1 µM
[14] = second compound 1 µM, first compound 0.316 µM
[15] = second compound 1 µM, first compound 1 µM
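Note: spheroids exposed to agents for 7 days before viability read.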

Compound: C=CC(=O)N1CCN(c2nc(=O)n(-c3c(C)ccnc3C(C)C)c3nc(-c4c(O)cccc4F)c(F)cc23)C(C)C1 (configuration not stated) + CCN1C(C(=O)NC23CCC(C(=O)O)(CC2)CC3)C(c2cccc(Cl)c2F)C2(C(=O)Nc3cc(Cl)ccc32)C12CCCCC2
IC50 (curve of first compound, second compound 0.03 µM): > 10 µM
IC50 (curve of first compound, second compound 0.0949 µM): > 10 µM
IC50 (curve of first compound, second compound 0.3 µM): > 10 µM
IC50 (curve of first compound, second compound 0.949 µM): > 10 µM
IC50 (curve of first compound, second compound 3 µM): > 10 µM
viability, T/C (second compound 0.03 µM, first compound 0.0316 µM): 96.1%
viability, T/C (second compound 0.03 µM, first compound 0.1 µM): 98.7%
viability, T/C (second compound 0.03 µM, first compound 0.316 µM): 95.1%
viability, T/C (second compound 0.03 µM, first compound 1 µM): 102%
viability, T/C (second compound 0.03 µM, first compound 3.16 µM): 94.3%
viability, T/C (second compound 0.03 µM, first compound 10 µM): 94.4%
viability, T/C (second compound 0.0949 µM, first compound 0.0316 µM): 102%
viability, T/C (second compound 0.0949 µM, first compound 0.1 µM): 99.1%
viability, T/C (second compound 0.0949 µM, first compound 0.316 µM): 104%
viability, T/C (second compound 0.0949 µM, first compound 1 µM): 88%
viability, T/C (second compound 0.0949 µM, first compound 3.16 µM): 117%
viability, T/C (second compound 0.0949 µM, first compound 10 µM): 99.4%
viability, T/C (second compound 0.3 µM, first compound 0.0316 µM): 102%
viability, T/C (second compound 0.3 µM, first compound 0.1 µM): 103%
viability, T/C (second compound 0.3 µM, first compound 0.316 µM): 101%
viability, T/C (second compound 0.3 µM, first compound 1 µM): 86.6%
viability, T/C (second compound 0.3 µM, first compound 3.16 µM): 116%
viability, T/C (second compound 0.3 µM, first compound 10 µM): 103%
viability, T/C (second compound 0.949 µM, first compound 0.0316 µM): 113%
viability, T/C (second compound 0.949 µM, first compound 0.1 µM): 95.6%
viability, T/C (second compound 0.949 µM, first compound 0.316 µM): 119%
viability, T/C (second compound 0.949 µM, first compound 1 µM): 115%
viability, T/C (second compound 0.949 µM, first compound 3.16 µM): 109%
viability, T/C (second compound 0.949 µM, first compound 10 µM): 103%
viability, T/C (second compound 3 µM, first compound 0.0316 µM): 93.2%
viability, T/C (second compound 3 µM, first compound 0.1 µM): 87.5%
viability, T/C (second compound 3 µM, first compound 0.316 µM): 96%
viability, T/C (second compound 3 µM, first compound 1 µM): 96.5%
viability, T/C (second compound 3 µM, first compound 3.16 µM): 103%
viability, T/C (second compound 3 µM, first compound 10 µM): 84.8%

Compound: CCN1C(C(=O)NC23CCC(C(=O)O)(CC2)CC3)C(c2cccc(Cl)c2F)C2(C(=O)Nc3cc(Cl)ccc32)C12CCCCC2 (configuration not stated)
viability, T/C (compound 0.00949 µM): 95.4% and 108%
IC50 (compound alone, run of 10/11/2022): > 3 µM
IC50 (curve of compound): > 3 µM

Compound: CCN1CCN(Cc2ccc(Nc3ncc(F)c(-c4cc(F)c5nc(C)n(C(C)C)c5c4)n3)nc2)CC1 + Cc1c(S(C)(=O)=O)c(-c2cc(F)cc(N3CCN(c4ccc(NS(=O)(=O)c5ccc(NC(CCN6CCC(C(=O)OCCCP(=O)(O)O)CC6)CSc6ccccc6)c(S(=O)(=O)C(F)(F)F)c5)cc4)CC3)c2)c(-c2ccc(Cl)cc2)n1C(C)C
IC50 [1]: > 1 µM
IC50 [2]: > 1 µM
IC50 [3]: 0.556 µM
IC50 (curve of first compound, second compound 3.16 µM): 0.782 µM
IC50 (curve of first compound, second compound 10 µM): 0.49 µM
viability, T/C (second compound 0.1 µM, first compound 0.00316 µM): 99.3%
viability, T/C (second compound 0.1 µM, first compound 0.01 µM): 75.3%
viability, T/C [4]: 88.9%
viability, T/C [5]: 78.1%
viability, T/C [6]: 87.8%
viability, T/C [7]: 61%
viability, T/C (second compound 0.316 µM, first compound 0.00316 µM): 83.7%
viability, T/C (second compound 0.316 µM, first compound 0.01 µM): 77.5%
viability, T/C [8]: 86.5%
viability, T/C [9]: 83.5%
viability, T/C [10]: 74.7%
viability, T/C [11]: 57.5%
viability, T/C (second compound 1 µM, first compound 0.00316 µM): 78.2%
viability, T/C (second compound 1 µM, first compound 0.01 µM): 89.6%
viability, T/C [12]: 86.6%
viability, T/C [13]: 77.3%
viability, T/C [14]: 62%
viability, T/C [15]: 37.9%
viability, T/C (second compound 3.16 µM, first compound 0.00316 µM): 69.6%
viability, T/C (second compound 3.16 µM, first compound 0.01 µM): 86.1%
viability, T/C (second compound 3.16 µM, first compound 0.0316 µM): 90.1%
viability, T/C (second compound 3.16 µM, first compound 0.1 µM): 66.5%
viability, T/C (second compound 3.16 µM, first compound 0.316 µM): 67.6%
viability, T/C (second compound 3.16 µM, first compound 1 µM): 45.5%
viability, T/C (second compound 10 µM, first compound 0.00316 µM): 68.9%
viability, T/C (second compound 10 µM, first compound 0.01 µM): 69.7%
viability, T/C (second compound 10 µM, first compound 0.0316 µM): 79.9%
viability, T/C (second compound 10 µM, first compound 0.1 µM): 64%
viability, T/C (second compound 10 µM, first compound 0.316 µM): 70.6%
viability, T/C (second compound 10 µM, first compound 1 µM): 16.7%

Compound: NC1CCC(NC2CC2c2ccccc2)CC1 (configuration not stated)
viability, T/C (compound 0.000316 µM): 86.2% and 89% and 93.9%
viability, T/C (compound 0.001 µM): 88.5% and 105% and 92.8%
viability, T/C (compound 0.00316 µM): 92.3% and 95.4% and 89.9%
viability, T/C (compound 0.01 µM): 89.6% and 94.8% and 95.2%
viability, T/C (compound 0.0316 µM): 94.2% and 84.8% and 111%
viability, T/C (compound 0.1 µM): 87.9% and 97.2% and 85%
IC50 (curve of compound): > 0.1 µM

Second part, led by results:

IC50 (curve of compound): > 10 µM
Compound: O=C(c1cc(Cc2n[nH]c(=O)c3ccccc23)ccc1F)N1CCN(C(=O)C2CC2)CC1
viability, T/C (compound 0.0316 µM): 102% and 112% and 91.3%
viability, T/C (compound 0.1 µM): 107% and 101% and 99.2%
viability, T/C (compound 0.316 µM): 106% (2×) and 60%
viability, T/C (compound 1 µM): 95.7% and 85.4% and 88.8%
viability, T/C (compound 3.16 µM): 106% and 98.3% and 72.7%
viability, T/C (compound 10 µM): 81.1% and 83.3% and 78.6%

IC50 (curve of first compound, second compound 0.01 µM): > 10 µM
IC50 (curve of first compound, second compound 0.0316 µM): > 10 µM
IC50 [1]: > 10 µM
IC50 [2]: > 10 µM
IC50 [3]: > 10 µM
Compound: C=CC(=O)N1CCN(c2nc(=O)n(-c3c(C)ccnc3C(C)C)c3nc(-c4c(O)cccc4F)c(F)cc23)C(C)C1 (configuration not stated) + CNC(C)C(=O)NC1CN(S(=O)(=O)c2cccc(S(=O)(=O)N3CCC4CCC(C(=O)NC(c5ccccc5)c5ccccc5)N4C(=O)C(NC(=O)C(C)NC)C3)c2)CCC2CCC(C(=O)NC(c3ccccc3)c3ccccc3)N2C1=O
viability, T/C (second compound 0.01 µM, first compound 0.0316 µM): 88.6%
viability, T/C (second compound 0.01 µM, first compound 0.1 µM): 90%
viability, T/C (second compound 0.01 µM, first compound 0.316 µM): 82.4%
viability, T/C (second compound 0.01 µM, first compound 1 µM): 101%
viability, T/C (second compound 0.01 µM, first compound 3.16 µM): 103%
viability, T/C (second compound 0.01 µM, first compound 10 µM): 86.5%
viability, T/C (second compound 0.0316 µM, first compound 0.0316 µM): 95%
viability, T/C (second compound 0.0316 µM, first compound 0.1 µM): 98%
viability, T/C (second compound 0.0316 µM, first compound 0.316 µM): 83%
viability, T/C (second compound 0.0316 µM, first compound 1 µM): 91.5%
viability, T/C (second compound 0.0316 µM, first compound 3.16 µM): 94.3%
viability, T/C (second compound 0.0316 µM, first compound 10 µM): 78.8%
viability, T/C [4]: 98.3%
viability, T/C [5]: 81.5%
viability, T/C [6]: 89.1%
viability, T/C [7]: 95.3%
viability, T/C (second compound 0.1 µM, first compound 3.16 µM): 91.3%
viability, T/C (second compound 0.1 µM, first compound 10 µM): 100%
viability, T/C [8]: 92.3%
viability, T/C [9]: 85.2%
viability, T/C [10]: 94.2%
viability, T/C [11]: 79.8%
viability, T/C (second compound 0.316 µM, first compound 3.16 µM): 78.9%
viability, T/C (second compound 0.316 µM, first compound 10 µM): 81.4%
viability, T/C [12]: 79.5%
viability, T/C [13]: 71.5%
viability, T/C [14]: 86.3%
viability, T/C [15]: 74.8%
viability, T/C (second compound 1 µM, first compound 3.16 µM): 87.2%
viability, T/C (second compound 1 µM, first compound 10 µM): 66.5%
